# Experimental data taken from patent publication US20220274954A1, “SUBSTITUTED N-PHENYL-N-AMINOUARCILS AND SALTS THEREOF AND USE THEREOF AS HERBICIDAL AGENTS” (Bayer Aktiengesellschaft, priority 2019, published 2022).
# How the values were obtained:
# Type in all cases: in vivo
# Triticum aestivum = assay: Post-emergence crop plant compatibility; details: application rate 1.25 g/ha
# Method in brief: (§1)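 Values are visual % effects about 3 weeks after treatment, relative to untreated plants (0% = like control, 100% = plant death). Crops sown in sandy loam under greenhouse conditions were treated post-emergence at the one-leaf stage (2–3 weeks). Compounds were applied as WP or EC sprays with 0.5% additive at […] water.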
# Oryza sativa = assay: Post-emergence crop plant compatibility
# Method in brief: as §1
# Zea mays = assay: Post-emergence crop plant compatibility; details: application rate 1.25 g/ha
# Method in brief: as §1
# Alopecurus myosuroides = assay: Post-emergence herbicidal action; details: application rate 20 g/ha
# Method in brief: (§2)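 Plants grown from seed in sandy loam in the greenhouse were sprayed at the one-leaf stage, 2 to 3 weeks after sowing, with WP or EC formulations in water plus 0.5% additive at 20 g/ha or less. Activity was rated visually after about 3 weeks against untreated controls (100% = plants died, 0% = like control).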
# Matricaria inodora = assay: Post-emergence herbicidal action; details: Tripleurospermum inodorum, 504 h, read-out: Matricaria inodora (efficacy in %); for pest or weed control at 5 g/ha: application rate 5 g/ha; for pest or weed control at 20 g/ha: application rate 20 g/ha
# Method in brief: as §2
# Digitaria sanguinalis = assay: Post-emergence herbicidal action; details: 504 h, read-out: Digitaria sanguinalis (efficacy in %); for pest or weed control at 5 g/ha: application rate 5 g/ha; for pest or weed control at 20 g/ha: application rate 20 g/ha
# Method in brief: as §2
# Abutilon theophrasti = assay: Post-emergence herbicidal action; details: Abutilon theophrasti, 504 h, read-out: Abutilon theophrasti (efficacy in %); for pest or weed control at 5 g/ha: application rate 5 g/ha; for pest or weed control at 20 g/ha: application rate 20 g/ha
# Method in brief: as §2
# Polygonum convolvulus = assay: Post-emergence herbicidal action; details: Fallopia convolvulus, 504 h, read-out: Polygonum convolvulus (efficacy in %); for pest or weed control at 5 g/ha: application rate 5 g/ha; for pest or weed control at 20 g/ha: application rate 20 g/ha
# Method in brief: as §2
# Veronica persica = assay: Post-emergence herbicidal action; details: Veronica persica, 504 h, read-out: Veronica persica (efficacy in %); for pest or weed control at 5 g/ha: application rate 5 g/ha; for pest or weed control at 20 g/ha: application rate 20 g/ha
# Method in brief: as §2
# Setaria viridis = assay: Post-emergence herbicidal action; details: 504 h, read-out: Setaria viridis (efficacy in %); for pest or weed control at 5 g/ha: application rate 5 g/ha; for pest or weed control at 20 g/ha: application rate 20 g/ha
# Method in brief: as §2
# Avena fatua = assay: Post-emergence herbicidal action; details: application rate 20 g/ha
# Method in brief: as §2
# Viola tricolor = assay: Post-emergence herbicidal action; details: Viola tricolor, 504 h, read-out: Viola tricolor (efficacy in %); for pest or weed control at 5 g/ha: application rate 5 g/ha; for pest or weed control at 20 g/ha: application rate 20 g/ha
# Method in brief: as §2
# Echinochloa crus-galli = assay: Post-emergence herbicidal action; details: Echinochloa crus-galli, 504 h, read-out: Echinochloa crus-galli (efficacy in %); for pest or weed control at 5 g/ha: application rate 5 g/ha; for pest or weed control at 20 g/ha: application rate 20 g/ha
# Method in brief: as §2
# Amaranthus retroflexus = assay: Post-emergence herbicidal action; details: Amaranthus retroflexus, 504 h, read-out: Amaranthus retroflexus (efficacy in %); for pest or weed control at 5 g/ha: application rate 5 g/ha; for pest or weed control at 20 g/ha: application rate 20 g/ha
# Method in brief: as §2
# Lolium rigidum = assay: Post-emergence herbicidal action; details: application rate 20 g/ha
# Method in brief: as §2
# Pharbitis purpurea = assay: Post-emergence herbicidal action; details: Ipomoea purpurea, 504 h, read-out: Pharbitis purpurea (efficacy in %); for pest or weed control at 5 g/ha: application rate 5 g/ha; for pest or weed control at 20 g/ha: application rate 20 g/ha
# Method in brief: as §2
# Glycine max = assay: Post-emergence crop plant compatibility; details: application rate 5 g/ha
# Method in brief: as §1
# Hordeum murinum = assay: Post-emergence herbicidal action
# Method in brief: as §2
# Stellaria media = assay: Post-emergence herbicidal action; details: application rate 5 g/ha
# Method in brief: as §2
Compound,Triticum aestivum (efficacy in %) (Triticum aestivum),Oryza sativa (efficacy in %) (Oryza sativa; application rate 1.25 g/ha),Zea mays (efficacy in %) (Zea mays),pest or weed control at 5 g/ha (Matricaria inodora),pest or weed control at 20 g/ha (Matricaria inodora),pest or weed control at 5 g/ha (Digitaria sanguinalis),pest or weed control at 20 g/ha (Digitaria sanguinalis),pest or weed control at 5 g/ha (Abutilon theophrasti),pest or weed control at 20 g/ha (Abutilon theophrasti),pest or weed control at 5 g/ha (Polygonum convolvulus),pest or weed control at 20 g/ha (Polygonum convolvulus),pest or weed control at 5 g/ha (Veronica persica),pest or weed control at 20 g/ha (Veronica persica),pest or weed control at 5 g/ha (Setaria viridis),pest or weed control at 20 g/ha (Setaria viridis),pest or weed control at 5 g/ha (Viola tricolor),pest or weed control at 20 g/ha (Viola tricolor),pest or weed control at 5 g/ha (Echinochloa crus-galli),pest or weed control at 20 g/ha (Echinochloa crus-galli),pest or weed control at 5 g/ha (Amaranthus retroflexus),also measured
"COCCOCCOC(=O)COc1ncccc1Sc1cc(-n2c(=O)cc(C(F)(F)F)n(N)c2=O)c(F)cc1Cl [I.1-23, 2-(2-Methoxyethoxy)ethyl {[3-({5-[3-amino-2,6-dioxo-4-(trifluoromethyl)-3,6-dihydropyrimidin-1(2H)-yl]-2-chloro-4-fluorophenyl}sulfanyl)pyridin-2-yl]oxy}acetate]",20%,20%,20%,80%,100%,100%,100%,100%,100%,100%,100%,100%,100%,100%,100%,100%,100%,80%,100%,100%,Alopecurus myosuroides (efficacy in %) (Alopecurus myosuroides): 90%; Avena fatua (efficacy in %) (Avena fatua): 100%; pest or weed control at 20 g/ha (Amaranthus retroflexus): 100%; Lolium rigidum (efficacy in %) (Lolium rigidum): 80%; pest or weed control at 5 g/ha (Pharbitis purpurea): 80%; pest or weed control at 20 g/ha (Pharbitis purpurea): 100%
"COC(=O)COc1ncccc1Sc1cc(-n2c(=O)cc(C(F)(F)F)n(N)c2=O)c(F)cc1Cl [I.1-441, Methyl {[3-({5-[3-amino-2,6-dioxo-4-(trifluoromethyl)-3,6-dihydropyrimidin-1(2H)-yl]-2-chloro-4-fluorophenyl}sulfanyl)pyridin-2-yl]oxy}acetate]",20%,10%,20%,100%,100%,90%,100%,100%,100%,80%,100%,100%,100%,100%,100%,100%,100%,80%,100%,100%,Oryza sativa (efficacy in %) (Oryza sativa; application rate 5 g/ha): 20%; Glycine max (efficacy in %) (Glycine max): 20%; Hordeum murinum (efficacy in %) (Hordeum murinum; application rate 5 g/ha): 80%; Hordeum murinum (efficacy in %) (Hordeum murinum; application rate 20 g/ha): 100%; Stellaria media (efficacy in %) (Stellaria media): 100%; pest or weed control at 20 g/ha (Amaranthus retroflexus): 100%; Lolium rigidum (efficacy in %) (Lolium rigidum): 80%; pest or weed control at 5 g/ha (Pharbitis purpurea): 100%; pest or weed control at 20 g/ha (Pharbitis purpurea): 100%
